Calls of active or inactive are those of the source. The calls are words filed in the database; no cut-off is given here.

The record followed here is ChEMBL document CHEMBL1153018, “Synthesis of pochoxime prodrugs as potent HSP90 inhibitors” (Bioorg Med Chem Lett, 2009).

Data set [1] relates to NSCLC. Kind of data set: Growth inhibition of human NSCLC cells assessed as ATP level after 4 days. The format is functional, cell-based.
The test system of data set [2] is MV4-11. The experiment in a line: Growth inhibition of human MV4-11 cells assessed as ATP level after 4 days. The format is functional. The note with it: MV4-11, 96 h.
The test system of data set [3] is K562. Kind of data set: Growth inhibition of human K562 cells assessed as ATP level after 4 days. Format: functional. The note with it: K562, 96 h.
In data set [4] the test system is HCT-116. The experiment in a line: Growth inhibition of human HCT116 cells assessed as ATP level after 4 days. The note with it: HCT-116, 96 h. Format: functional.
Data set [5] concerns NCI-N87. Kind of data set: Growth inhibition of human NCI-N87 cells assessed as ATP level after 4 days. The format is functional. To be noted: NCI-N87, 96 h.
The species named for data set [6] is Homo sapiens. The experiment in a line: Growth inhibition of human tarceva and iressa-resistant […] cells assessed as ATP level after 4 days. Format: functional.
The test system of data set [7] is MDA-MB-468. Kind of data set: Growth inhibition of human MDA-MB-468 cells assessed as ATP level after 4 days. Format: functional. The note with it: MDA-MB-468, 96 h.
The subject of data set [8] is PC-3. Kind of data set: Growth inhibition of human PC3 cells assessed as ATP level after 4 days. Format: functional, cell-based.
Data set [9] is described as follows: Growth inhibition of human MDA231 cells assessed as ATP level after 4 days. Format: functional. The note with it: MDA-MB-231, 96 h.
Data set [10] concerns BT-474. The experiment in a line: Growth inhibition of human BT474 cells assessed as ATP level after 4 days. Format: functional. The note with it: BT-474, 96 h.
Data set [11] concerns the target Heat shock protein HSP 90-alpha (Homo sapiens) (UniProt P07900).
Data set [12] can be described thus: Aqueous solubility of the compound. Format: physicochemical.
Data set [13] has as its target Heat shock protein HSP 90-alpha (Homo sapiens) (UniProt P07900). The experiment in a line: Binding affinity to human HSP90alpha at < 10 uM.
Data set [14] is described as follows: Drug level in mouse liver at 4 mg/kg, iv. Format: ADME, organism-based. Further details: dose 4 mg/kg, route intravenous.
In data set [15] the test system is Liver. The experiment in a line: Drug level in mouse liver at 30 mg/kg, po. To be noted: in vivo. Format: ADME, organism-based. Further details: dose 30 mg/kg, route oral.
For data set [16], the system named is Mus musculus. The experiment in a line: Hepatotoxicity in ICR-SCID mouse liver assessed as alanine aminotransferase level at 50 mg/kg administered 3 times per week for 4 weeks measured after 24 hrs of last dose relative to untreated control. The format is toxicity, organism-based. Details: dose 50 mg/kg. The note with it: in vivo.
Data set [17] has as its system Mus musculus. The experiment in a line: Toxicity in ICR-SCID mouse kidney assessed as creatinine level at 75 mg/kg administered 3 times per week for 4 weeks measured after 24 hrs of last dose relative to untreated control. Format: organism-based. Further details: dose 75 mg/kg. The note with it: in vivo.
The test system of data set [18] is Mus musculus. Kind of data set: Toxicity in ICR-SCID mouse kidney assessed as creatinine level at 50 mg/kg administered 3 times per week for 4 weeks measured after 24 hrs of last dose relative to untreated control. To be noted: in vivo. Further details: dose 50 mg/kg. Format: organism-based.
Data set [19] concerns Mus musculus. Kind of data set: Hepatotoxicity in ICR-SCID mouse liver assessed as aspartate aminotransferase level at 50 mg/kg administered 3 times per week for 4 weeks measured after 24 hrs of last dose relative to untreated control. Format: toxicity, organism-based. Further details: dose 50 mg/kg. To be noted: in vivo.
The test system of data set [20] is Mus musculus. The experiment in a line: Hepatotoxicity in ICR-SCID mouse liver assessed as alkaline phosphatase level at 75 mg/kg administered 3 times per week for 4 weeks measured after 24 hrs of last dose relative to untreated control. To be noted: in vivo. The format is toxicity, organism-based. Further details: dose 75 mg/kg.
In data set [21] the test system is Mus musculus. Kind of data set: Hepatotoxicity in ICR-SCID mouse liver assessed as aspartate aminotransferase level at 100 mg/kg administered 3 times per week for 4 weeks measured after 24 hrs of last dose relative to untreated control. To be noted: in vivo. Further details: dose 100 mg/kg. Format: toxicity, organism-based.
Data set [22] relates to Mus musculus. The experiment in a line: Hepatotoxicity in ICR-SCID mouse liver assessed as alanine aminotransferase level at 100 mg/kg administered 3 times per week for 4 weeks measured after 24 hrs of last dose relative to untreated control. Format: toxicity, organism-based. Details: dose 100 mg/kg. To be noted: in vivo.
The test system of data set [23] is NCI-H1975. The experiment in a line: Growth inhibition of human tarceva and iressa-resistant NCI-H1975 cells assessed as ATP level after 4 days. Format: functional. To be noted: NCI-H1975, 96 h.
For data set [24], the system named is Mus musculus. The experiment in a line: Hepatotoxicity in ICR-SCID mouse liver assessed as alanine aminotransferase level at 75 mg/kg administered 3 times per week for 4 weeks measured after 24 hrs of last dose relative to untreated control. The format is toxicity, organism-based. Details: dose 75 mg/kg. The note with it: in vivo.
Data set [25] relates to Mus musculus. The experiment in a line: Hepatotoxicity in ICR-SCID mouse liver assessed as bilirubin level at 50 mg/kg administered 3 times per week for 4 weeks measured after 24 hrs of last dose relative to untreated control. Format: toxicity, organism-based. Details: dose 50 mg/kg. To be noted: in vivo.
The subject of data set [26] is Mus musculus. Kind of data set: Hepatotoxicity in ICR-SCID mouse liver assessed as aspartate aminotransferase level at 75 mg/kg administered 3 times per week for 4 weeks measured after 24 hrs of last dose relative to untreated control. Format: toxicity, organism-based. Further details: dose 75 mg/kg. To be noted: in vivo.
Data set [27] relates to Mus musculus. Kind of data set: Toxicity in ICR-SCID mouse heart assessed as cholesterol level at 75 mg/kg administered 3 times per week for 4 weeks measured after 24 hrs of last dose relative to untreated control. Details: dose 75 mg/kg. The note with it: in vivo. Format: organism-based.
Data set [28] relates to Mus musculus. The experiment in a line: Hepatotoxicity in ICR-SCID mouse liver assessed as bilirubin level at 75 mg/kg administered 3 times per week for 4 weeks measured after 24 hrs of last dose relative to untreated control. The format is toxicity, organism-based. Details: dose 75 mg/kg. The note with it: in vivo.
For data set [29], the system named is Mus musculus. Kind of data set: Hepatotoxicity in ICR-SCID mouse liver assessed as bilirubin level at 100 mg/kg administered 3 times per week for 4 weeks measured after 24 hrs of last dose relative to untreated control. To be noted: in vivo. Further details: dose 100 mg/kg. The format is toxicity, organism-based.
The nature of data set [30]: Growth inhibition of human tarceva and iressa-resistant HCC827 cells assessed as ATP level after 4 days. The format is functional. The note with it: HCC827, 96 h.
Data set [31] deals with Mus musculus. Kind of data set: Toxicity in ICR-SCID mouse heart assessed as […] level at 50 mg/kg administered 3 times per week for 4 weeks measured after 24 hrs of last dose relative to untreated control. Further details: dose 50 mg/kg. The note with it: in vivo. The format is organism-based.
Data set [32] relates to Mus musculus. The experiment in a line: Hepatotoxicity in ICR-SCID mouse liver assessed as alkaline phosphatase level at 100 mg/kg administered 3 times per week for 4 weeks measured after 24 hrs of last dose relative to untreated control. Format: toxicity, organism-based. Details: dose 100 mg/kg. The note with it: in vivo.
Data set [33] has as its system Mus musculus. The experiment in a line: Toxicity in ICR-SCID mouse heart assessed as cholesterol level at 50 mg/kg administered 3 times per week for 4 weeks measured after 24 hrs of last dose relative to untreated control. Further details: dose 50 mg/kg. Format: organism-based. The note with it: in vivo.
For data set [34], the system named is Mus musculus. The experiment in a line: Hepatotoxicity in ICR-SCID mouse liver assessed as alkaline phosphatase level at 50 mg/kg administered 3 times per week for 4 weeks measured after 24 hrs of last dose relative to untreated control. The note with it: in vivo. Further details: dose 50 mg/kg. Format: toxicity, organism-based.
Data set [35] has as its system Mus musculus. The experiment in a line: Toxicity in ICR-SCID mouse heart assessed as […] level at 75 mg/kg administered 3 times per week for 4 weeks measured after 24 hrs of last dose relative to untreated control. The format is organism-based. Details: dose 75 mg/kg. The note with it: in vivo.

One may read the GI50 as the concentration giving 50% growth inhibition. As for `O=C1OCC/C=C/CC/C=C/C(=N/OCC(=O)N2CCCCC2)Cc2cc(O)cc(O)c21` [POCHOXIME B], the result in data set [1], in data set [6] and in data set [8] was Active. In addition, the GI50 amounted to 2 nM in [2]; 4 nM in [3]; 11 nM in data set [4]; 1 nM in data set [5]; 2 nM in [7]; 2 nM in data set [9]. The 50% growth inhibitory concentration (GI50) in data set [10] stood at 2 nM; in data set [11], 15 nM.
In general, solubility refers to the concentration that dissolves in the medium under given conditions. A higher solubility goes with much dissolved substance. In general, Cmax refers to the peak of the concentration-time curve. Turning to `C[C@@H]1C/C=C/CC/C=C/C(=N/OCC(=O)N2CCCCC2)Cc2cc(OP(=O)([O-])[O-])cc(OP(=O)([O-])[O-])c2C(=O)O1.[Na+].[Na+].[Na+].[Na+]`, the solubility in [12] is > 100 mg/mL. Also, in [13], the outcome was inactive. This compound returned a Cmax in [14] of 3840 ng/g. For the same compound, the Drug uptake in data set [15] stood at 12469 ng/g.
For `O=C1OCC/C=C/CC/C=C/C(=N/OCC(=O)N2CCCCC2)Cc2cc(OP(=O)([O-])[O-])cc(O)c21.[Na+].[Na+]`, in data set [12], the solubility was ≥ 80 mg/mL. The outcome in data set [13] was inactive.
Take `C[C@@H]1C/C=C/CC/C=C/C(=N/OCC(=O)N2CCCCC2)Cc2cc(OP(=O)([O-])[O-])cc(O)c2C(=O)O1.[Na+].[Na+]`: the solubility in [12] is ≥ 80 mg/mL. The result in data set [13] was inactive.
In the same order, the values of `O=C1OCC/C=C/CC/C=C/C(=N/OCC(=O)N2CCCCC2)Cc2cc(OCOP(=O)([O-])[O-])cc(O)c21.[Na+].[Na+]` are ≥ 80 mg/mL and “inactive”.
In the case of `C[C@@H]1C/C=C/CC/C=C/C(=N/OCC(=O)N2CCCCC2)Cc2cc(O)cc(O)c2C(=O)O1` [POCHOXIME C], the result in data set [1], in data set [6] and in data set [8] was Active. The GI50 in data set [2] was 3 nM; in data set [3], 7 nM; in data set [5] it was 2 nM; in data set [7], 6 nM; in [9] it was 6 nM; in [10], 6 nM. The same compound had a GI50 in data set [11] of 18 nM.
As for `C=CCNC1=C2C[C@@H](C)C[C@H](OC)[C@H](O)[C@@H](C)/C=C(\C)[C@H](OC(N)=O)[C@@H](OC)/C=C\C=C(/C)C(=O)NC(=CC1=O)C2=O` (stereo in doubt) [TANESPIMYCIN], the Activity in data set [16] stood at 175.3 U/L; in data set [17] it was 0.2 mg/dL; in [18], 0.2 mg/dL; in data set [19] it was 216 U/L; in [20], 143.3 U/L; in data set [21], 10611.3 U/L. Besides, the Activity in [22] stood at 11134 U/L; in [24], 755.7 U/L; in [25], 0.2 mg/dL; in data set [26] it was 1058.3 U/L; in data set [27], 97.5 mg/dL; in data set [28], 0.25 mg/dL. Also, the Activity in [29] came to 1.1 mg/dL; in [31], 64.7 U/L; in data set [32], 131.3 U/L; in data set [33], 105.3 mg/dL; in data set [34] it was 128.3 U/L; in data set [35], 166 U/L. In addition, the GI50 was determined as 11 nM in data set [2]; 48 nM in [3]; 1 nM in data set [5]; 35 nM in data set [23]; 780 nM in data set [7]; 56 nM in data set [30]. The GI50 in [10] was 5 nM.
Consider `O=C1OCC/C=C/CC/C=C/C(=N/OCC(=O)N2CCCCC2)Cc2c(Cl)c(O)cc(OP(=O)([O-])[O-])c21.[Na+].[Na+]`, for which the solubility in data set [12] was ≥ 80 mg/mL. The result in [13] was inactive.
`O=C1OCC/C=C/CC/C=C/C(=N/OCC(=O)N2CCCCC2)Cc2c(Cl)c(OP(=O)([O-])[O-])cc(O)c21.[Na+].[Na+]`: the solubility in [12] was ≥ 80 mg/mL. Besides, the 50% growth inhibitory concentration (GI50) in data set [5] was 19 nM; in data set [7] it was 37 nM; in data set [10], 14 nM; in [11] it was > 10000 nM. In [13], the result was inactive.
